Test results: patent US20160193216A1 (Nimbus Iris, Inc., priority 2012, published 2016)

target: T1, IRAK4 (Homo sapiens, UniProt Q9NWZ3); experiment: IRAK-4 activity inhibition assay (Caliper); type: biochemical; conditions: 37 μM ATP, 3.5 nM IRAK4
T1 sequence (Q9NWZ3 1-460): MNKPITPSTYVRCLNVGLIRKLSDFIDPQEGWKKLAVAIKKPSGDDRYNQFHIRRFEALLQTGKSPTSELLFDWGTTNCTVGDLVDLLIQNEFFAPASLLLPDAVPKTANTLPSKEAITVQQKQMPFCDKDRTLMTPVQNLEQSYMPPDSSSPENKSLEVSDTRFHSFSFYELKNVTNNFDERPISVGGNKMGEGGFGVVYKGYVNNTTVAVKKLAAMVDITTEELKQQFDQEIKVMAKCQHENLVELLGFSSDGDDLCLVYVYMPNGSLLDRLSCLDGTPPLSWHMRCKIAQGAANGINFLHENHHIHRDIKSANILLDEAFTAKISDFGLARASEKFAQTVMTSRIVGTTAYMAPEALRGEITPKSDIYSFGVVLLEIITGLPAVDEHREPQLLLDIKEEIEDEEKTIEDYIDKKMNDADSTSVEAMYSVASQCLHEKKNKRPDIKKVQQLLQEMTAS
Procedure: A 1× kinase base buffer was prepared from 50 mM HEPES, pH 7.5 and 0.0015% Brij-35. A stop buffer was prepared from 100 mM HEPES, pH 7.5, 0.015% Brij-35, 0.2% Coating Reagent #3, and 50 mM EDTA.
Test compound was diluted to 50× of the final desired highest inhibitor concentration in reaction by 100% DMSO. 100 μl of this compound dilution was transferred to a well in a 96-well plate.
Test compound was serially diluted by transferring 30 μl to 60 μl of 100% DMSO in the next well and so forth for a total of 10 concentrations. 100 μl of 100% DMSO was added to two empty wells for no compound control and no enzyme control in the same 96-well plate.
A new 96-well plate was marked as intermediate plate. 5 μl of compound serial dilution was transferred from source plate to the corresponding wells of the intermediate plate. 45 μl of 1× kinase base buffer (KB buffer) was added to each well of the intermediate plate. The intermediate plate was placed for 10 min on a shaker.
5 μl of each well was transferred from the 96-well intermediate plate to a 384-well plate in duplicates. […] A2 of the 96-well plate is transferred to A3 and A4 of the 384-well plate, and so on.
IRAK4 and DTT in 1× kinase base buffer was added.
Assay plate already contained 5 μl of compound in 10% DMSO. Added 10 μl of 2.5× enzyme solution to each well of the 384-well assay plate, except no enzyme control wells. […] Added 10 μl of 1× kinase base buffer to no enzyme control wells in the assay plate. Incubated at room temperature for 10 min.
Added 10 μl of 2.5× peptide solution to each well of the 384-well assay plate. […] Incubated at 28° C. for 40 minutes. Added 25 μl of stop buffer to stop reaction. Collected data on Caliper.
Copied conversion % data from Caliper program. Converted conversion % values to percent inhibition values. Percent inhibition=(max−conversion %)/(max−min)*100, where “max” means the conversion % of DMSO control and “min” means the conversion % of no enzyme control.
The compound numbers correspond to the compound numbers in Table 1. […] “NA” stands for “not assayed.”

IC50, < 5 µM:
CN(C)[C@H]1CC[C@H](Oc2ncnc3sc4c(c23)[C@@H](CC(O)c2ncco2)CC4)CC1 (mixture of isomers) [Compound I-60, 2-[(3R)-12-[[4-(dimethylamino)cyclohexyl]oxy]-7-thia-9,11-diazatricyclo[6.4.0.0[2,6]]dodeca-1(8),2(6),9,11-tetraen-3-yl]-1-(1,3-oxazol-2-yl)ethan-1-ol]
NC(=O)C(O)C[C@H]1CCc2sc3ncnc(N[C@H]4CC[C@H](N5CCOCC5)CC4)c3c21 (mixture of isomers) [Compound I-118, 2-hydroxy-3-((R)-4-(((1r,4R)-4-morpholinocyclohexyl)amino)-6,7-dihydro-5H-cyclopenta[4,5]thieno[2,3-d]pyrimidin-5-yl)propanamide]
CN(C)[C@H]1CC[C@H](Oc2nc(Nc3ccc(N4CCNCC4)cc3)nc3sc4c(c23)C(CC(N)=O)CC4)CC1 (mixture of isomers) [Compound I-205, 2-(12-[[4-(dimethylamino)cyclohexyl]oxy]-10-[[4-(piperazin-1-yl)phenyl]amino]-7-thia-9, 11-diazatricyclo[6.4.0.0[2,6]]dodeca-1(12),2(6),8, 10-tetraen-3-yl)acetamide]
CC[S@+]([O-])C[C@H]1CCc2sc3ncnc(O[C@H]4CC[C@H](N(C)C)CC4)c3c21 (single isomer, unassigned) [Compound I-45]
CC[S@@+]([O-])C[C@H]1CCc2sc3ncnc(O[C@H]4CC[C@H](N(C)C)CC4)c3c21 (single isomer, unassigned) [Compound I-46]
CN(C)[C@H]1CC[C@H](Oc2ncnc3sc4c(c23)CC(CC(N)=O)CC4)CC1 (single isomer, unassigned) [Compound I-112]
CCNC(=O)CC1CCc2sc3ncnc(O[C@H]4CC[C@H](N(C)C)CC4)c3c21 (stereo in doubt) [Compound I-35, 2-[(3S)-12-[[4-(dimethylamino)cyclohexyl]oxy]-7-thia-9,11-diazatricyclo[6.4.0.0[2,6]]dodeca-1(12),2(6),8,10-tetraen-3-yl]-N-ethylacetamide]
CN(C)[C@H]1CC[C@H](Oc2ncnc3sc4c(c23)[C@@H](CC(O)c2ncco2)CC4)CC1 (stereo in doubt) [Compound I-62, (1S)-2-[(3R)-12-[[4-(dimethylamino)cyclohexyl]oxy]-7-thia-9,11-diazatricyclo[6.4.0.0[2,6]]dodeca-1(8),2(6),9,11-tetraen-3-yl]-1-(1,3-oxazol-2-yl)ethan-1-ol]
CN(C)[C@H]1CC[C@H](Nc2ncnc3sc4c(c23)C(CO)CC4)CC1 (some centres unmarked) [Compound I-3]
CN(C)[C@H]1CC[C@H](Oc2ncnc3sc4c(c23)C(C)(C)CC4)CC1 [Compound I-7, (1r,4r)-4-((5,5-dimethyl-6,7-dihydro-5H-cyclopenta[4,5]thieno[2,3-d]pyrimidin-4-yl)oxy)-N,N-dimethylcyclohexanamine]
CN(C)[C@H]1CC[C@H](Nc2ncnc3sc4c(c23)C(CC#N)CC4)CC1 (some centres unmarked) [Compound I-9]
CN(C)[C@H]1CC[C@H](Nc2ncnc3sc4c(c23)C(CCO)CC4)CC1 (some centres unmarked) [Compound I-12, 2-(4-(((1r,4r)-4-(dimethylamino)cyclohexyl)amino)-6,7-dihydro-5H-cyclopenta[4,5]thieno[2,3-d]pyrimidin-5-yl)ethanol]
CN(C)[C@H]1CC[C@H](Nc2ncnc3sc4c(c23)C(CC(N)=O)CC4)CC1 (some centres unmarked) [Compound I-13, 2-(4-(((1r,4r)-4-(dimethylamino)cyclohexyl)amino)-6,7-dihydro-5H-cyclopenta[4,5]thieno[2,3-d]pyrimidin-5-yl)acetamide]
CN(C)[C@H]1CC[C@H](Nc2ncnc3sc4c(c23)C(C(=O)NCCO)CC4)CC1 (some centres unmarked) [Compound I-17, 12-[[4-(dimethylamino)cyclohexyl]amino]-N-(2-hydroxyethyl)-7-thia-9,11-diazatricyclo[6.4.0.0̂[2,6]]dodeca-1(12),2(6),8,10-tetraene-3-carboxamide]
CN(C)[C@H]1CC[C@H](Oc2ncnc3sc4c(c23)[C@@H](CO)CC4)CC1 [Compound I-19, ((R)-4-(((1r,4R)-4-(dimethylamino)cyclohexyl)oxy)-6,7-dihydro-5H-cyclopenta[4,5]thieno[2,3-d]pyrimidin-5-yl)methanol]
CN(C)[C@H]1CC[C@H](Oc2ncnc3sc4c(c23)[C@H](CO)CC4)CC1 [Compound I-20, ((S)-4-(((1r,4S)-4-(dimethylamino)cyclohexyl)oxy)-6,7-dihydro-5H-cyclopenta[4,5]thieno[2,3-d]pyrimidin-5-yl)methanol]

IC50, 5 to 20 µM:
CN[C@H]1CC[C@H](Oc2ncnc3sc4c(c23)[C@@H](CC(=O)NC[C@@H](C)O)CC4)CC1 (stereo in doubt) [Compound I-151, N-[(2R)-2-hydroxypropyl]-2-[(3R)-12-[[4-(methylamino)cyclohexyl]oxy]-7-thia-9,11-diazatricyclo[6.4.0.0[2,6]]dodeca-1(12),2(6),8,10-tetraen-3-yl]acetamide]
CCOC(=O)C1CCc2sc3ncnc(N[C@H]4CC[C@H](N(C)C)CC4)c3c21 (some centres unmarked) [Compound I-1]
CN(C)[C@H]1CC[C@H](Nc2ncnc3sc4c(c23)C(C(=O)O)CC4)CC1 (some centres unmarked) [Compound I-5, 4-(((1s,4s)-4-(dimethylamino)cyclohexyl)amino)-6,7-dihydro-5H-cyclopenta[4,5]thieno[2,3-d]pyrimidine-5-carboxylic acid]
CN(C)[C@H]1CC[C@H](Nc2ncnc3sc4c(c23)C(C)(C)CC4)CC1 [Compound I-6, (1r,4r)-N1-(5,5-dimethyl-6,7-dihydro-5H-cyclopenta[4,5]thieno[2,3-d]pyrimidin-4-yl)-N4,N4-dimethylcyclohexane-1,4-diamine]
COC(=O)CC1CCc2sc3ncnc(N[C@H]4CC[C@H](N(C)C)CC4)c3c21 (some centres unmarked) [Compound I-11]
CN(C)[C@H]1CC[C@H](Nc2ncnc3sc4c(c23)C(CC(=O)O)CC4)CC1 (some centres unmarked) [Compound I-18]

IC50, 20 to 50 µM:
CCOC(=O)C1CCc2sc3ncnc(N[C@H]4CC[C@H](N)CC4)c3c21 (some centres unmarked) [Compound I-2, ethyl 4-(((1r,4r)-4-aminocyclohexyl)amino)-6,7-dihydro-5H-cyclopenta[4,5]thieno[2,3-d]pyrimidine-5-carboxylate]
CCOC(=O)C1CCc2sc3ncnc(O[C@H]4CC[C@H](N(C)C)CC4)c3c21 (some centres unmarked) [Compound I-4]
CN(C)[C@H]1CC[C@H](Nc2ncnc3sc4c(c23)C(CN2CCCC2)CC4)CC1 (some centres unmarked) [Compound I-10, (1r,4r)-N1,N1-dimethyl-N4-(5-(pyrrolidin-1-ylmethyl)-6,7-dihydro-5H-cyclopenta[4,5]thieno[2,3-d]pyrimidin-4-yl)cyclohexane-1,4-diamine]

IC50, > 50 µM:
CN(C)[C@H]1CC[C@H](Oc2ncnc3sc4c(c23)C(C(=O)O)CC4)CC1 (some centres unmarked) [Compound I-8, 4-(((1r,4r)-4-(dimethylamino)cyclohexyl)oxy)-6,7-dihydro-5H-cyclopenta[4,5]thieno[2,3-d]pyrimidine-5-carboxylic acid]
CN(C)[C@H]1CC[C@H](Nc2ncnc3sc4c(c23)C(CC(=O)N2CCCC2)CC4)CC1 (some centres unmarked) [Compound I-14, 2-(4-(((1r,4r)-4-(dimethylamino)cyclohexyl)amino)-6,7-dihydro-5H-cyclopenta[4,5]thieno[2,3-d]pyrimidin-5-yl)-1-(pyrrolidin-1-yl)ethanone]
CN(C)[C@H]1CC[C@H](Nc2ncnc3sc4c(c23)C(CC(=O)N2CC[C@H](O)C2)CC4)CC1 (stereo partly drawn) [Compound I-15, 2-(4-(((1r,4S)-4-(dimethylamino)cyclohexyl)amino)-6,7-dihydro-5H-cyclopenta[4,5]thieno[2,3-d]pyrimidin-5-yl)-1-((S)-3-hydroxypyrrolidin-1-yl)ethanone]
CN(C)[C@H]1CC[C@H](Nc2ncnc3sc4c(c23)C(CC(=O)N2CC[C@@H](O)C2)CC4)CC1 (stereo partly drawn) [Compound I-16, 2-(4-(((1r,4R)-4-(dimethylamino)cyclohexyl)amino)-6,7-dihydro-5H-cyclopenta[4,5]thieno[2,3-d]pyrimidin-5-yl)-1-((R)-3-hydroxypyrrolidin-1-yl)ethanone]
